From paper PMC10747112, “Triphenylphosphine Derivatives of Allylbenzenes Express Antitumor and Adjuvant Activity When Solubilized with Cyclodextrin-Based Formulations” (Pharmaceuticals, 2023)
Marks after values point to notes of the source that are not given here.

Key:
erythrocytes = experiment: Hemolytic activity; assay type: cell-based; conditions: 0.1 mg/mL
From the text: (§1) Hemolytic activity and thrombogenicity are the primary parameters for evaluating the safety of medical formulations. The phenotypic sea urchin embryo assay developed by colleagues is a visual way to study the toxicity of formulations in vivo. The sea urchin and human genomes contain more than 7000 common genes, including orthologs associated with a number of human diseases. Therefore, sea urchins can be considered as a reliable and versatile model organism for studying the safety of new and existing cytotoxic formulations in vivo. Table 5 presents data on the % of erythrocyte hemolysis, the degree of whole blood thrombosis of apiol-PPh3 and analogues, and data of phenotypic sea urchin embryo assay. Thus, the non-toxicity of PPh3 derivatives of allylbenzenes for normal non-cancer cells, as well as the selectivity of action against cancer cells, is shown. The selectivity of cytotoxic action against cancer cells in comparison with normal cells can be explained by the fact that the PPh3- cation provides selective accumulation and reduction in the mitochondrial membrane potential of the transformed cancer cells. Cyclodextrin (M-β-CD) and heparin are non-toxic (and approved by the FDA for intravenous application).
The hemolytic activity and thrombogenicity of apiol-PPh3 and analogues were studied using an earlier published technique.

sea urchin embryos = experiment: Phenotypic sea urchin embryo assay; assay type: in vivo; conditions: X in M-β-CD
From the text: as §1
Adult sea urchins, Paracentrotus lividus L. (Echinidae), were collected from the Mediterranean Sea on the Cyprus coast and kept in an aerated seawater tank and were used to study the cleavage alteration of Apiol-PPh3 and analogues. Experiments with sea urchin embryos comply with the requirements of biological ethics.

HEK293T cells = experiment: FTIR spectroscopy of HEK293T cells during incubation with drug (penetration/adsorption); assay type: cell-based, human; conditions: 60 min incubation (apiol-PPh3 in M-β-CD) or pre-incubation (doxorubicin controls); 37 °C
From the text: The main cell structural units that contribute to the absorption of IR diapason can be assigned as follows (Figure 5): lipids of the cell membrane (2800–3000 cm^−1), proteins, especially transmembrane (1500–1700 cm^−1), phosphate groups of DNA (1240 cm^−1) and carbohydrates, including lipopolysaccharides (900–1100 cm^−1). Previously, we developed a technique for tracking the penetration and adsorption of the drug into cells using FTIR spectroscopy: dramatic changes in the intensity of the peaks of amide 1 and amide 2 indicate effective penetration of the drug into cells and vice versa.
Here, we present the real-time data of FTIR spectroscopy during the incubation of a suspension of HEK293T cells with apiol-PPh3 in M-β-CD (Figure 5). […] There is only a shift of the peak of amide 1 to the low-frequency region (inserts in Figure 5, the normalized intensity is shown) and amide 2 to the high-frequency region with the simultaneous appearance of the shoulder. This indicates the only adsorption of drug molecules on the cell surface, which is also confirmed by a weak increase in the intensity of the peaks at 2850–3000 cm^−1 corresponding to the valence vibrations of the CH2 groups (lipid bilayer). Thus, PPh3 derivatives show only marginal activity against normal cells.

Row | SMILES | Hemolysis Index (erythrocytes) | Concentration Causing Changes in Sea Urchin Embryos (sea urchin embryos) | changes in FTIR amide I and II peak intensity of HEK293T cells (drug penetration) (HEK293T cells)
1 | COc1cc(CCC[P+](c2ccccc2)(c2ccccc2)c2ccccc2)c(OC)c(OC)c1OC [Allyltetramethoxybenzene-PPh3] | 0.7 ± 0.1% | >4 *** μM | 
2 | COc1cc(CCC[P+](c2ccccc2)(c2ccccc2)c2ccccc2)cc2c1OCO2 [Myristicin-PPh3] | 0.5 ± 0.1% | >4 *** μM | 
3 | COc1cc(CCC[P+](c2ccccc2)(c2ccccc2)c2ccccc2)c(OC)c2c1OCO2 [Apiol-PPh3] | 0.8 ± 0.2% | >4 *** μM | practically no changes in the intensity of the peaks of amide I and II
4 | COc1c(CCC[P+](c2ccccc2)(c2ccccc2)c2ccccc2)cc2c(c1OC)OCO2 [Dillapiol-PPh3] | 0.9 ± 0.2% | >4 *** μM | 
